This passage reports Zuwachs results from EP0212479A1, “Use of lactam amides as efficiency improvers in animals” (BAYER AG, priority 1985, dated 1987).

The nature of this experiment: Rat feeding trial (Ratten-Fütterungsversuch), growth promotion. Format: in vivo, Laborratten vom Typ SPF Wistar. As to conditions: female rats 90-110 g, active substance in feed ad lib, Dosis 25 ppm, 13-day trial, weight gain relative to Kontrolle = 100. The text has this: Weibliche Laborratten 90-110 g schwer vom Typ SPF Wistar tZüchtung Hagemann) werden ad lib mit Standard Rattenfutter, das mit der gewünschten Menge Wirkstoff versetzt ist, gefüttert. Jeder Versuchsansatz wird mit Futter der identischen Charge durchgeführt, so daß Unterschiede in der Zusammensetzung des Futters die Vergleichbarkeit der Ergebnisse nicht beeinträchtigen können.
Die Ratten erhalten Wasser ad lib.
Jeweils 12 Ratten bilden eine Versuchsgruppe und werden mit Futter, das mit der gewünschten Menge Wirkstoff versetzt ist gefüttert. Eine Kontrollgruppe erhält Futter ohne Wirkstoff. Das durchschnittliche Körpergewicht sowie die Streuung in den Körpergewichten der Ratten ist in jeder Versuchsgruppe gleich, so daß eine Vergleichbarkeit der Versuchsgruppen untereinander gewährleistet ist.
Während des 13-tägigen Versuchs werden Gewichtszunahme und Futterverbrauch bestimmt.
Es werden die aus der Tabelle ersichtlichen Ergebnisse erhalten: […]

Turning to `FC(F)(F)c1cccc(CNC2=NCCCCC2)c1` [14 (Maleinat)], the Zuwachs is 117.
The same measure for `CC(NC1=NCCCCC1)c1cccc(C(F)(F)F)c1` (stereo not drawn) [Beispiel 1]: 111.
The same measure for `FC(F)(F)c1ccc(CNC2=NCCCCC2)cc1` [Beispiel 3]: 107; for `CC(C)c1ccc(C(F)(F)F)cc1CNC1=NCCCCC1` [Beispiel 9]: 104; for `FC(F)(F)c1ccccc1CNC1=NCCCCC1` [Beispiel 10]: 107.
In the case of `FC(F)(F)c1cccc(CNC2=NCCCCC2)c1` [Beispiel 13, 2-(3-Trifluormethyl-benzylamino)-tetrahydroazepin], the Zuwachs amounted to 112.
